Patent US20240425464A1, “Substituted Monohydrazides as Potent Antifungal Agents” (University of Kentucky Research Foundation, priority 2023, published 2024)
≈ marks a conversion by molar mass, not a printed value. Read-outs that look alike come from different tables or passages of the source.

Legend:
Experiment in all cases: MIC determination by in vitro antifungal assay
Format in all cases: cell-based, Candida auris
C. auris AR Bank #388 = test system: C. auris AR Bank #388
Experimental: (§1) The antifungal agent amphotericin B (AmB) was purchased from VWR (Radnor PA, USA). AmB was dissolved in DMSO at a final concentration of 5 mg/mL and was stored at −20° C., protected from light. Candida albicans American Type Culture Collection (ATCC) 10231 (strain A), C. albicans ATCC 64124 (B), and C. albicans ATCC MYA-2876 (C) were obtained from Utah State University. C. albicans ATCC 90819 (D), C. albicans ATCC MYA-2310 (E), C. albicans ATCC MYA-1237 (F), C. albicans ATCC MYA-1003 (G), Candida glabrata ATCC 2001 (H), Candida krusei ATCC 6258 (I), Candida parapsilosis ATCC 22019 (J), Cryptococcus neoformans ATCC MYA-895 (M), Aspergillus terreus ATCC MYA-3633 (N), and Aspergillus flavus ATCC MYA-3631 (0) were obtained from the American Type Culture Collection (ATCC; Manassas, VA, USA). Aspergillus nidulans ATCC 38163 (P) was obtained from University of Kentucky. Clinically derived Aspergillus fumigatus NRRL 163 (Q), A. fumigatus NRRL 5109 (R), and A. fumigatus NRRL 6113 (S) were obtained from Northern Regional Research Laboratory (NRRL). Candida auris 384 (K), C. auris 390 (L), and fungal strains 381-400 (including 10 C. auris (AR Bank #381-390), 3 Candida duobushaemulonii (AR Bank #391, AR Bank #392, and AR Bank #394), 2 Candida haemulonii (AR Bank #393 and AR Bank #395), 1 Kodameae ohmeri (AR Bank #396), 1 C. krusei (AR Bank #397), 1 Candida lusitaniae (AR Bank #398), and 2 Saccharomyces cerevisiae strains (AR Bank #399 and AR Bank #400)) were part of a larger fungal library from the AR Bank maintained by the Centers for Disease Control and Prevention (CDC; Atlanta, GA, USA). Filamentous fungi and yeasts were cultivated at 35° C. in RPMI 1640 medium (with L-glutamine, without sodium bicarbonate, Sigma-Aldrich, St. Louis, MO) buffered to a pH of 7.0 with 0.165 M morpholinepropanesulfonic acid (MOPS) buffer (Sigma-Aldrich). For cytotoxicity assays, HepG2 and the mouse macrophage cell line J774A.1 were obtained from University of Kentucky. The human embryonic kidney cell line, HEK-293, was bought from the ATCC. Mammalian cells were grown in Dulbecco's Modified Eagle's Medium (DMEM) (from VWR) with 10% fetal bovine serum (FBS) (from VWR) and 1% Pen/Strep (from ATCC). Cell lines were cultured at 37° C. with 5% CO2 and passaged by trypsinization with 0.05% trypsin: 0.53 mM EDTA (from Sigma-Aldrich).
(§2) From the actively growing yeast culture, 100 µL were then transferred to 900 μL of RPMI 1640 medium and re-adjusted to achieve OD600 of 0.12 (˜1×10^6 CFU/mL). The cell suspension was further diluted to achieve 1:100 in RPMI 1640 medium.

C. auris AR Bank #387 = test system: C. auris AR Bank #387
Experimental: as §1, §2

C. auris AR Bank #383 = test system: C. auris AR Bank #383
Experimental: as §1, §2

C. auris AR Bank #389 = test system: C. auris AR Bank #389
Experimental: as §1, §2

C. auris AR Bank #381 = test system: C. auris AR Bank #381
Experimental: as §1, §2

C. auris AR Bank #386 = test system: C. auris AR Bank #386
Experimental: as §1, §2

C. auris AR Bank #382 = test system: C. auris AR Bank #382
Experimental: as §1, §2

C. auris AR Bank #385 = test system: C. auris AR Bank #385
Experimental: as §1, §2

[1] = Candidozyma auris, C. auris AR Bank # 388 (Table 2B), read-out: MIC
[2] = Candidozyma auris, C. auris AR Bank # 387 (Table 2B), read-out: MIC
[3] = Candidozyma auris, C. auris AR Bank # 383 (Table 2B), read-out: MIC
[4] = Candidozyma auris, C. auris AR Bank # 389 (Table 2B), read-out: MIC
[5] = Candidozyma auris, C. auris AR Bank # 381 (Table 2B), read-out: MIC
[6] = Candidozyma auris, C. auris AR Bank # 386 (Table 2B), read-out: MIC
[7] = Candidozyma auris, C. auris AR Bank # 382 (Table 2B), read-out: MIC
[8] = Candidozyma auris, C. auris AR Bank # 385 (Table 2B), read-out: MIC
[9] = C. auris AR Bank # 388 (Table 2B)
[10] = C. auris AR Bank # 387 (Table 2B)
[11] = C. auris AR Bank # 383 (Table 2B)
[12] = C. auris AR Bank # 389 (Table 2B)
[13] = C. auris AR Bank # 381 (Table 2B)
[14] = C. auris AR Bank # 386 (Table 2B)
[15] = C. auris AR Bank # 382 (Table 2B)
[16] = C. auris AR Bank # 385 (Table 2B)

## O=C(NNc1ccc(F)cc1F)c1nc(F)ccc1F [Compound 8g]
C. auris AR Bank #388; [1]
  MIC: 0.98 µg/mL (≈ 3.44 µM)
C. auris AR Bank #387; [2]
  MIC: 0.98 µg/mL (≈ 3.44 µM)
C. auris AR Bank #383; [3]
  MIC: 1.95 µg/mL (≈ 6.84 µM)
C. auris AR Bank #389; [4]
  MIC: 1.95 µg/mL (≈ 6.84 µM)
C. auris AR Bank #381; [5]
  MIC: 1.95 µg/mL (≈ 6.84 µM)
C. auris AR Bank #386; [6]
  MIC: 1.95 µg/mL (≈ 6.84 µM)
C. auris AR Bank #382; [7]
  MIC: 1.95 µg/mL (≈ 6.84 µM)
C. auris AR Bank #385; [8]
  MIC: 0.49 µg/mL (≈ 1.72 µM)

## O=C(NNc1ccc(F)cc1F)c1ccc(F)cn1 [Compound 3g]
C. auris AR Bank #388; [1]
  MIC: 1.95 µg/mL (≈ 7.3 µM)
C. auris AR Bank #387; [2]
  MIC: 0.98 µg/mL (≈ 3.67 µM)
C. auris AR Bank #383; [3]
  MIC: 1.95 µg/mL (≈ 7.3 µM)
C. auris AR Bank #389; [4]
  MIC: 1.95 µg/mL (≈ 7.3 µM)
C. auris AR Bank #381; [5]
  MIC: 1.95 µg/mL (≈ 7.3 µM)
C. auris AR Bank #386; [6]
  MIC: 1.95 µg/mL (≈ 7.3 µM)
C. auris AR Bank #382; [7]
  MIC: 1.95 µg/mL (≈ 7.3 µM)
C. auris AR Bank #385; [8]
  MIC: 0.49 µg/mL (≈ 1.83 µM)

## O=C(NNc1ccc(Cl)cc1)c1ccccn1 [Compound 2e]
C. auris AR Bank #388; C. auris AR Bank #388
  MIC: 1.95 μg/mL^−1
C. auris AR Bank #387; C. auris AR Bank #387
  MIC: 1.95 μg/mL^−1
C. auris AR Bank #383; C. auris AR Bank #383
  MIC: 1.95 μg/mL^−1
C. auris AR Bank #389; C. auris AR Bank #389
  MIC: 0.98 μg/mL^−1
C. auris AR Bank #381; C. auris AR Bank #381
  MIC: 1.95 μg/mL^−1
C. auris AR Bank #386; C. auris AR Bank #386
  MIC: 0.98 μg/mL^−1
C. auris AR Bank #382; C. auris AR Bank #382
  MIC: 3.9 μg/mL^−1
C. auris AR Bank #385; C. auris AR Bank #385
  MIC: 1.95 μg/mL^−1

## O=C(NNc1ccc(F)cc1F)c1cccc(F)n1 [Compound 5g]
C. auris AR Bank #388; [1]
  MIC: 3.9 µg/mL (≈ 14.6 µM)
C. auris AR Bank #387; [2]
  MIC: 1.95 µg/mL (≈ 7.3 µM)
C. auris AR Bank #383; [3]
  MIC: 1.95 µg/mL (≈ 7.3 µM)
C. auris AR Bank #389; [4]
  MIC: 3.9 µg/mL (≈ 14.6 µM)
C. auris AR Bank #381; [5]
  MIC: 3.9 µg/mL (≈ 14.6 µM)
C. auris AR Bank #386; [6]
  MIC: 1.95 µg/mL (≈ 7.3 µM)
C. auris AR Bank #382; [7]
  MIC: 0.98 µg/mL (≈ 3.67 µM)
C. auris AR Bank #385; [8]
  MIC: 3.9 µg/mL (≈ 14.6 µM)

## O=C(NNc1cccc(Cl)c1)c1ccccn1 [Compound 2b]
C. auris AR Bank #388; C. auris AR Bank #388
  MIC: 0.49 μg/mL^−1
C. auris AR Bank #387; C. auris AR Bank #387
  MIC: 0.49 μg/mL^−1
C. auris AR Bank #383; C. auris AR Bank #383
  MIC: 0.49 μg/mL^−1
C. auris AR Bank #389; C. auris AR Bank #389
  MIC: 0.49 μg/mL^−1
C. auris AR Bank #381; C. auris AR Bank #381
  MIC: 0.98 μg/mL^−1
C. auris AR Bank #386; C. auris AR Bank #386
  MIC: 0.24 μg/mL^−1
C. auris AR Bank #382; C. auris AR Bank #382
  MIC: 0.49 μg/mL^−1
C. auris AR Bank #385; C. auris AR Bank #385
  MIC: 0.49 μg/mL^−1

## O=C(NNc1ccc(F)cc1)c1ccc(F)cn1 [Compound 3d]
C. auris AR Bank #388; [9]
  MIC: 1.95 μg/mL^−1
C. auris AR Bank #387; [10]
  MIC: 0.98 μg/mL^−1
C. auris AR Bank #383; [11]
  MIC: 1.95 μg/mL^−1
C. auris AR Bank #389; [12]
  MIC: 1.95 μg/mL^−1
C. auris AR Bank #381; [13]
  MIC: 1.95 μg/mL^−1
C. auris AR Bank #386; [14]
  MIC: 1.95 μg/mL^−1
C. auris AR Bank #382; [15]
  MIC: 0.98 μg/mL^−1
C. auris AR Bank #385; [16]
  MIC: 0.98 μg/mL^−1

## O=C(NNc1ccc(F)cc1F)c1ccccn1 [Compound 2g]
C. auris AR Bank #388; Candidozyma auris, C. auris AR Bank #388, read-out: MIC
  MIC: 0.12 µg/mL (≈ 0.482 µM)
C. auris AR Bank #387; Candidozyma auris, C. auris AR Bank #387, read-out: MIC
  MIC: 0.12 µg/mL (≈ 0.482 µM)
C. auris AR Bank #383; Candidozyma auris, C. auris AR Bank #383, read-out: MIC
  MIC: 0.49 µg/mL (≈ 1.97 µM)
C. auris AR Bank #389; Candidozyma auris, C. auris AR Bank #389, read-out: MIC
  MIC: 0.24 µg/mL (≈ 0.963 µM)
C. auris AR Bank #381; Candidozyma auris, C. auris AR Bank #381, read-out: MIC
  MIC: 0.49 µg/mL (≈ 1.97 µM)
C. auris AR Bank #386; Candidozyma auris, C. auris AR Bank #386, read-out: MIC
  MIC: 0.49 µg/mL (≈ 1.97 µM)
C. auris AR Bank #382; Candidozyma auris, C. auris AR Bank #382, read-out: MIC
  MIC: 0.49 µg/mL (≈ 1.97 µM)
C. auris AR Bank #385; Candidozyma auris, C. auris AR Bank #385, read-out: MIC
  MIC: 0.49 µg/mL (≈ 1.97 µM)

## C[C@@H]1[C@H](O)[C@@H](C)/C=C/C=C/C=C/C=C/C=C/C=C/C=C/[C@H](O[C@@H]2O[C@H](C)[C@@H](O)[C@H](N)[C@@H]2O)C[C@@H]2O[C@](O)(C[C@@H](O)C[C@@H](O)[C@H](O)CC[C@@H](O)C[C@@H](O)CC(=O)O[C@H]1C)C[C@H](O)[C@H]2C(=O)O [AmB, amphotericin B, reference compound]
C. auris AR Bank #388; C. auris AR Bank #388
  MIC: 1.95 μg/mL^−1
C. auris AR Bank #388; [9]
  MIC: 1.95 μg/mL^−1
C. auris AR Bank #387; C. auris AR Bank #387
  MIC: 0.98 μg/mL^−1
C. auris AR Bank #387; [10]
  MIC: 0.98 μg/mL^−1
C. auris AR Bank #383; C. auris AR Bank #383
  MIC: 1.95 μg/mL^−1
C. auris AR Bank #383; [11]
  MIC: 1.95 μg/mL^−1
C. auris AR Bank #389; C. auris AR Bank #389
  MIC: 1.95 μg/mL^−1
C. auris AR Bank #389; [12]
  MIC: 1.95 μg/mL^−1
C. auris AR Bank #381; C. auris AR Bank #381
  MIC: 0.98 μg/mL^−1
C. auris AR Bank #381; [13]
  MIC: 0.98 μg/mL^−1
C. auris AR Bank #386; C. auris AR Bank #386
  MIC: 0.98 μg/mL^−1
C. auris AR Bank #386; [14]
  MIC: 0.98 μg/mL^−1
C. auris AR Bank #382; C. auris AR Bank #382
  MIC: 0.98 μg/mL^−1
C. auris AR Bank #382; [15]
  MIC: 0.98 μg/mL^−1
C. auris AR Bank #385; C. auris AR Bank #385
  MIC: 1.95 μg/mL^−1
C. auris AR Bank #385; [16]
  MIC: 1.95 μg/mL^−1

## COc1cccc(NNC(=O)c2ccc(F)cn2)c1 [Compound 3c]
C. auris AR Bank #388; [9]
  MIC: 0.98 μg/mL^−1
C. auris AR Bank #387; [10]
  MIC: 0.98 μg/mL^−1
C. auris AR Bank #383; [11]
  MIC: 0.98 μg/mL^−1
C. auris AR Bank #389; [12]
  MIC: 0.98 μg/mL^−1
C. auris AR Bank #381; [13]
  MIC: 0.98 μg/mL^−1
C. auris AR Bank #386; [14]
  MIC: 0.98 μg/mL^−1
C. auris AR Bank #382; [15]
  MIC: 0.49 μg/mL^−1
C. auris AR Bank #385; [16]
  MIC: 0.49 μg/mL^−1
